Source: patent US20060025449A1, “Use of N-substituted imino sugars for appetite suppression” (priority 2004, published 2006)
Entries after “also recorded” stand apart in the source; their conditions may differ.

What was measured:
lean control mouse = assay: Single intracerebroventricular (ICV) injection, food intake and weight change after 24 hours; format: in vivo; details: 2 nmol ICV, 24 hours
Protocol: To investigate a central anorexigenic mechanism for weight loss in mice treated with NB-DNJ, single intracerebro-ventricular (ICV) injections were performed. The mice were assessed for food intake and weight change. Mice were anesthetized with isofluorane (4%) delivered by a vaporiser. Upon achievement of a surgical plane of anaesthesia, the animal was transferred to and secured in a Kopf small animal ultra precise stereotaxic instrument (David Kopf Instruments, Tujunga, Calif., USA) fitted with rat ear bars, mouse adaptor and mouse anaesthesia mask. A small amount of lignocaine local anaesthetic gel was applied to the ear bars to reduce any post-operative discomfort. For the remainder of the procedure, anaesthesia was maintained with 2.5% isofluorane. Lacrilube (Allergan Ltd, High Wycombe, UK) was applied to the mouse's eyes and a subcutaneous injection of the non-steroidal anti-inflammatory drug, Rimadyl (Pfizer, Sandwich, Kent, UK) was given for post-operative analgesia. For ICV injections, a small scalpel incision was made along the midline of the scalp from above the eyes to the occiput. A small hole was drilled in the skull, 1 mm lateral and 0.34 mm posterior to Bregma. 1 μl solution was slowly infused into the lateral ventricle at a depth of 2.25 mm, via a glass needle pipette pulled to a thickness of less than 100 microns at the tip. Mice were injected with 2 nmol compound (NB-DNJ, NB-DGJ or 2-deoxy glucose) in isotonic saline vehicle which was injected into controls. The incision was then closed using VetBond acrylic suture fluid (3M Animal Care Products, St Paul, Minn., USA). The whole procedure from induction of anaesthesia to full recovery lasted less than seven minutes. Mice were allowed free access to a pre-weighed quantity of RM1 pellet diet with water provided ad libitum. 24 hours following ICV injection the mice and remaining diet were weighed. To confirm a central anorectic effect of NB-DNJ, 2 nmol NB-DNJ, NB-DGJ and 2 deoxyglucose were injected directly into the lateral cerebral ventricle of lean control mouse brain (approximately 100 μM final cerebro-ventricular concentration). Mice injected with both saline vehicle and NB-DGJ ate a normal quantity of pellet diet in the following 24 hours (FIG. 9), approximately 5% less in this experiment than that seen in control mice in FIG. 7 (not statistically significant). In contrast, NB-DNJ-injected mice ate 20% less (p<0.02 for both saline and NB-DGJ) and 2-deoxy-glucose injections caused a 10% increase in feeding. 2-deoxy-glucose is a mild appetite stimulant in the short-term. Tsutsui et al., Physiol Behav 31, 493-502. In contrast, NB-DGJ had no effect, as expected.

C57B1/6 mice = assay: Effect of imino sugars admixed with diet on growth of normal control mice; format: in vivo, mouse; details: 2400 mg/kg/day in diet
Protocol: Control C57B1/6 and C57BL/6O1aHsd-Lep ob mice were obtained from Harlan, UK at five weeks of age. The mice were housed under standard non-sterile conditions and fed a diet of mouse chow pelleted or expanded ground RM1 diet (SDS Ltd, Witham, Essex) with water available ad libitum. For dietary treatment of the mice with NB-DNJ or NB-DGJ, the diet and compound were admixed thoroughly as dry solids, stored at room temperature and used within 7 days. Unless indicated otherwise, mice were treated with a dose of 2400 mg/kg body weight per day, assuming an intake of around 5 g diet/day. Mice were maintained on diet with or without compound for up to six months of age and were weighed at regular intervals during the course of the experiment (see figure legends for group sizes and further experimental details). To study the effect of compound on obese mice, three groups (n=5) of ob/ob mice were monitored from five weeks of age. One group acted as control and were fed ground RM1 diet. At 6 weeks of age, the second group was started on NB-DNJ in the diet, whilst the third group started drug treatment at 12 weeks of age. All mice were then monitored for up to six months of age. […] In the first week of treatment, mice with NB-DNJ in their diet lost about 10% of their total body mass. Over the course of the following weeks, their weight stabilises. By 5 weeks of treatment they weighed 25% less than the controls. They then started to gain weight. However, after 10 weeks they remained 20% less in mass when compared with the age and sex-matched control group.

control lean mice = assay: ICV mini-pump implants, long-term intracerebro-ventricular delivery; format: in vivo, mouse; details: ICV mini-pump 500 mM, first 24 hours
Protocol: FIG. 11. Control lean mice (n=5 in each group) had icv minipumps (50 mM imino sugar) implanted. Body weight was the monitored at regular intervals over three weeks. See example 7 for further experimental details. The effect of long-term intracerebro-ventricular delivery of imino sugars was determined by the implantation of Alzet mini-osmotic pumps (model 2004, DURECT Corporation, CA, USA) together with the brain infusion kit II which features a high stability low profile cannula. The mini-pumps were loaded with 0.24 ml imino sugar or saline vehicle. The indwelling 28 gauge stainless steel cannula was cut to a length of 2.25 mm. Mice were anaesthetised as for the ICV injections and underwent similar surgical procedures throughout. After drilling a small hole in the cranium at the midline, 2 mm posterior to Bregma, the mini-pump was positioned subcutaneously in the animal's flank and the cannula was implanted. This position and depth ensured delivery to the third cerebral ventricle. The implant was secured to the cranium using VetBond acrylic suture fluid, which was also used to close the surgical wound. The whole procedure lasted less than 9 minutes and mice were fully conscious and recovered within three minutes. For concentration of imino sugar in mini-pumps see figure legends.

Compound	increase in feeding (lean control mouse) [%]	effect on growth / body weight (C57B1/6 mice)	effect on food intake (lean control mouse)	ate less than control mice of FIG. 7 (lean control mouse; not statistically significant)	effect on dietary intake (control lean mice)	effect on weight change (control lean mice)
O=CC[C@@H](O)[C@H](O)[C@H](O)CO [2-deoxy-glucose, 2-deoxyglucose]	10	–	–	–	–	–
CCCCN1C[C@H](O)[C@@H](O)[C@@H](O)[C@H]1CO [NB-DGJ]	–	did not lose weight; also recorded: no discernible effect	no effect	approximately 5%	no statistically significant effect	no statistically significant effect
